According to ChEMBL document CHEMBL6078727 (Bioorg Med Chem, 2025):
Active and inactive are the calls of the source. The rule behind the calls is not given here.

Legend:
[1] = (§1) Induction of mitochondrial uncoupling activity in rat L6 myoblast cells assessed as increase in oxygen consumption rate by measuring ratio of integrated area under OCR dose curve above baseline relative to BAM15 up to 200 uM over 90 mins; assay type: functional
[2] = Induction of mitochondrial uncoupling activity in rat L6 myoblast cells assessed as increase in oxygen consumption rate measured over 90 mins; assay type: functional, cell-based
[3] = Cmax in C57BL/6J mouse at 10 mg/kg, po administrated via oral gavage by LC-MS/MS analysis; assay type: ADME, organism-based; conditions: in vivo
[4] = Half-life in male C57BL/6J mouse plasma at 10 mg/kg, po administrated via oral gavage by LC-MS/MS analysis; assay type: ADME, organism-based; conditions: in vivo
L6 = test: as §1; assay type: functional

Row | Structure (SMILES) | EC50 [2] | Cmax ([3]; po, 10 mg/kg) | t1/2 [4] | Cmax ([3]; C57BL/6J) | Activity [1] | Activity (L6)
1 | NNc1nc2nonc2nc1Nc1ccccc1F |  |  |  |  |  | inactive
2 | CC(C)(C)C(=O)ONc1nc2nonc2nc1Nc1ccccc1F | 5200 nM |  |  |  | 86% | 
3 | Cc1ccc(Nc2nc3nonc3nc2NO)cc1 |  |  |  |  |  | inactive
4 | ONc1nc2nonc2nc1Nc1ccccc1F | 87600 nM |  |  |  | 41% | 
5 | ONc1nc2nonc2nc1Nc1cc(F)cc(F)c1 |  |  |  |  |  | inactive
6 | CC(C)(C)OC(=O)NNc1nc2nonc2nc1Nc1cccc(Cl)c1 | 1600 nM |  |  |  | 78% | 
7 | O=C(ONc1nc2nonc2nc1Nc1ccccc1F)c1ccccc1C(F)(F)F | 6560 nM |  |  |  | 65% | 
8 | CC(C)(C)OC(=O)NNc1nc2nonc2nc1Nc1ccccc1F | 4600 nM | 220 nM | 27 min |  | 103% | 
9 | CNNc1nc2nonc2nc1Nc1ccccc1F | 77000 nM |  |  |  | 15% | 
10 | O=C(NNc1nc2nonc2nc1Nc1ccccc1F)c1cccc(F)c1 |  |  |  |  | 8% | 
11 | CN(Nc1nc2nonc2nc1Nc1ccccc1F)C(=O)OC(C)(C)C | 8400 nM |  |  |  | 65% | 
12 | CCCCC(=O)NNc1nc2nonc2nc1Nc1ccccc1F | 14200 nM |  |  |  | 71% | 
13 | CCOC(=O)NNc1nc2nonc2nc1Nc1ccccc1F | 16300 nM |  |  |  | 65% | 
14 | O=C(ONc1nc2nonc2nc1Nc1ccccc1F)c1ccccc1F | > 100000 nM |  |  |  | 45% | 
15 | ONc1nc2nonc2nc1Nc1ccc(-c2ccc(F)cc2)cc1 |  |  |  |  |  | inactive
16 | CCCC(=O)NNc1nc2nonc2nc1Nc1ccccc1F | > 100000 nM |  |  |  | 31% | 
17 | O=C(NNc1nc2nonc2nc1Nc1ccccc1F)c1ccc(OC(F)(F)F)cc1 | 4300 nM |  |  |  | 6% | 
18 | CC(C)(C)OC(=O)NNc1nc2nonc2nc1Nc1ccccc1Cl | 4600 nM | 170 nM | 108 min |  | 87% | 

Further compounds by falling EC50 [2], results first:

Row | EC50 [2] | Cmax ([3]; po, 10 mg/kg) | t1/2 [4] | Cmax ([3]; C57BL/6J) | Structure (SMILES) | Activity [1] | Activity (L6)
19 | 1580 nM |  |  |  | O=C(ONc1nc2nonc2nc1Nc1ccccc1F)c1cccc(C(F)(F)F)c1 | 71% | 
20 | 1490 nM |  |  |  | Cc1cc(C)cc(C(=O)ONc2nc3nonc3nc2Nc2ccccc2F)c1 | 9% | 
21 | 1400 nM |  |  |  | O=C(ONc1nc2nonc2nc1Nc1ccccc1F)c1cc(C(F)(F)F)ccc1F | 75% | 
22 | 1360 nM |  |  |  | O=C(ONc1nc2nonc2nc1Nc1ccccc1F)c1ccc(F)cc1F | 97% | 
23 | 1200 nM |  |  |  | CCCCOC(=O)NNc1nc2nonc2nc1Nc1ccccc1F | 54% | 
24 | 1100 nM | 6600 nM | 35.4 min |  | CC(C)COC(=O)NNc1nc2nonc2nc1Nc1ccccc1F | 88% | 
25 | 1100 nM |  |  |  | CC(C)(C)OC(=O)NNc1nc2nonc2nc1Nc1cccc(F)c1 | 32% | 
26 | 1100 nM |  |  |  | O=C(NNc1nc2nonc2nc1Nc1ccccc1F)NC1CCCC1 | 23% | 
27 | 710 nM |  |  |  | O=C(ONc1nc2nonc2nc1Nc1ccccc1F)c1cccc(F)c1 | 102% | 
28 | 340 nM |  | 15 min | 2 nM | O=C(ONc1nc2nonc2nc1Nc1ccccc1F)c1ccc(OC(F)(F)F)cc1 | 118% | 
